The structures appear in SMILES notation.

The values below come from US7892350B2, “Sacrificial agents for fly ash concrete” (Boral Material Technologies Inc., priority 2003, dated 2011).

Data set [1] in a line: Adsorption/precipitation of SA or AEA in 10 wt % aqueous fly ash or cement slurries at pH 12.5. As to conditions: initial SA 3 mM. In kind it is physicochemical. The protocol: Adsorption/Precipitation of Sacrificial Agents (SA) or Air Entrainment Agents (AEA) in 10 wt % Aqueous Fly Ash Slurries at pH 12.5:
(§1) The pH of the solutions were adjusted to 12.5 with NaOH.
Adsorption/Precipitation in FA or Cement Slurries: In this protocol, aqueous slurries containing 10 wt % FA or cement were prepared as described above, except that in this case, the cement was added directly into a solution of the SA or AEA in the following proportions: 3.0 g cement or FA, and 27 g of 3 mM sacrificial agent, or 27 g of 1050 mg/l AEA; the latter were prepared in the same way as in the precipitation test above. The residual (soluble) SA or AEA content in the solution was also determined by UV or COD.

Data set [2] in a line: Paste air entrainment, Maximum air protocol. To be noted: PCA cement paste; 0.0125% SA or AEA alone; Maximum air protocol. As to the method: (§2) Preparation of pastes: Pastes were prepared by pouring 400 g of cementitious powder in the 350-400 g of solution (water and additives) in a vessel (8.4 cm dia,×14.5 cm height) while gently stirring with a spatula; the exact quantity of water depends on the selected W/B ratio (see below); rapid hand mixing was continued for 1 minute, followed by intense stirring at 25° C. during 2 min using a hand-held mixer (BRAUN model MR400). The level of air entrained is dependent on the mode of utilisation of the mixer, namely the height of the mixer from the bottom of the vessel and the length of the mixing stroke; the following protocols were adopted.
(§3) Fluidity measurements: For all air entrainment measurements, the initial fluidity of the paste (without additives) was controlled using the ‘mini-slump’ procedure widely used for paste and grouts. In this protocol, a portion of the paste was transferred into the min-slump cone (a 2¼″ high, 1½″ bottom diameter, ¾″ top diameter cone); excess paste was skimmed-off with a straight; the cone was then raised and the spread diameter of the paste was recorded (average of two measurements). The fluidity is measured at 10 minutes after mixing. The paste is returned to the batch and reserved for subsequent AE measurements. The fluidity of the paste (without SA and AEA) is adjusted by changing the amount of water (water/cementitious ratio) which yields a spread diameter of 115±5 mm. The latter is monitored regularly.
(§4) Air entrainment measurements: For air entrainment measurements, a portion of the paste was transferred to overfill a Plexiglas cylinder (3¾ inches height, 2 inches interior diameter), which was then levelled flush to the top of the cylinder with a straight edge. The mass of the filled cylinder, minus the weight of the empty cylinder, is then recorded and used to calculate the amount of air according to the following formula: […]
(§5) This procedure was carried out at three times at 30 min. intervals (6, 36 and 66 min); the paste was let to stand at rest between measurements, and was stirred gently by hand for one minute prior to the subsequent air entrainment measurements.
Other combinations of air entrainment agents and sacrificial agents were prepared as stock solutions following the procedure outlined above, adjusting the weights of the various components to achieve the desired component ratios.

A short description of data set [3]: Precipitation in slurry extract or leachate. The class given is physicochemical. To be noted: pH 12.5, entries in parentheses. The protocol:
as §1
Precipitation in slurry extract or leachate: To perform this test, FA or cement leachate were prepared in advance, by filtering two liters of a 10 wt % FA, or cement, slurry in 0.03N NaOH which had been left to stand under slow agitation for 30 min; 2.5 g of the filtrate solution was mixed with 22.5 g of the SA or AEA solution in a 50 ml polypropylene centrifuge tube; the latter was shaken vigorously in an orbital shaker (Eberbach Corporation) for 30 min at room temperature, centrifuged for 5 min and then the supernatant solution was filtered (0.45 μm). The SA or AEA content of the solution was determined using an Ultraviolet-Visible (UV) spectrometer or by COD (Chemical Oxygen Demand) measurement.
Entries in parentheses: % precipitation when reacted with solutions extracted from the fly ash slurries (Results in Table 5).

The nature of data set [4]: Paste air entrainment, Minimum air protocol. As to the method:
as §2
Minimum air protocol: The BRAUN mixer is positioned at 1.0 inch from the bottom of the mixing vessel and the up-down motion of the mixer is limited to a 1.0 inch displacement; this provided ‘minimum air’ entrained air levels and is later referred to as ‘Minimum air protocol’ (Results reported in Table 6, col. 1 and Table 7).
as §3, §4, §5
Typical mixture compositions for air entrainment measurements in pastes containing a single additive using ‘Minimum air protocol’ (results shown in Table 6, col. 1): […]

As for `O=C([O-])c1cccc2ccccc12.[Na+]` [NA, 1-Naphthoic acid sodium salt], the “Adsorption (wt % Adsorbed)” value in data set [1] (10 wt % fly ash B1 (LOI 4.36%) slurry, Air 30/Air 40 0.105 wt %) was determined as 9 wt %; in data set [1] (10 wt % fly ash C1, class C (LOI 1.62%) slurry, Air 30/Air 40 0.105 wt %), 61 wt %; in data set [1] (10 wt % fly ash C2 (LOI 3.32%) slurry) it was 4 wt %; in data set [1] (10 wt % fly ash M1 (LOI […]) slurry, Air 30/Air 40 0.105 wt %), 90 wt %; in data set [1] (10 wt % fly ash M2 (LOI 5.34%) slurry, Air 30/Air 40 0.105 wt %), 9 wt %; in data set [1] (10 wt % fly ash M3 (LOI 11.33%) slurry, Air 30/Air 40 0.105 wt %), 12 wt %. In data set [1] (10 wt % fly ash N (LOI 0.30%) slurry), the “Adsorption (wt % Adsorbed)” value stood at 20 wt %. The Air entrained in data set [2] amounted to 0 vol %; in data set [4] (50:50 fly ash B1 (LOI 4.36%):PCA paste, 0.1 wt % Air 30 alone or with 0.05 wt % of the SA), 4 vol %; in data set [4] (50:50 fly ash C1 (LOI 1.62%):PCA paste, 0.1 wt % Air 30 alone or with 0.05 wt % of the SA), 5 vol %; in data set [4] (50:50 fly ash D (LOI […]):PCA paste, 0.1 wt % Air 30 alone or with 0.05 wt % of the SA) it was 6 vol %; in data set [4] (50:50 fly ash M1 (LOI […]):PCA paste, 0.1 wt % Air 30 alone or with 0.05 wt % of the SA) it was 6 vol %; in data set [4] (50:50 fly ash M2 (LOI 5.34%):PCA paste, 0.1 wt % Air 30 alone or with 0.05 wt % of the SA) it was 4 vol %. In addition, the Air entrained in data set [4] (50:50 fly ash M3 (LOI 11.33%):PCA paste, 0.1 wt % Air 30 alone or with 0.05 wt % of the SA) was 5 vol %; in data set [4] (50:50 fly ash R (LOI […]):PCA paste, 0.1 wt % Air 30 alone or with 0.05 wt % of the SA), 4 vol %; in data set [4] (PCA cement paste, 0.1% SA or AEA alone, Minimum air protocol), 0 vol %. Moreover, the “Precipitation (wt % precipitated)” value came out at 0 wt % in data set [3] (solution extracted from 10 wt % fly ash B1 (LOI 4.36%) slurry); 0 wt % in data set [3] (solution extracted from 10 wt % fly ash C1, class C (LOI 1.62%) slurry); 0 wt % in data set [3] (solution extracted from 10 wt % fly ash C2 (LOI 3.32%) slurry); 80 wt % in data set [3] (solution extracted from 10 wt % fly ash M1 (LOI […]) slurry); 0 wt % in data set [3] (solution extracted from 10 wt % fly ash M2 (LOI 5.34%) slurry); 0 wt % in data set [3] (solution extracted from 10 wt % fly ash M3 (LOI 11.33%) slurry). The “Precipitation (wt % precipitated)” value in data set [3] (solution extracted from 10 wt % fly ash N (LOI 0.30%) slurry) stood at 0 wt %. In addition, in data set [4] (over the fly ash:PCA pastes of Table 7, 0.1 wt % Air 30 alone or with 0.05 wt % of the SA), the “Average of air entrained” value came out at 5%.
